In EP2567943A1, “TITANIUM COAGULANT FOR NATURAL AND WASTE WATER PURIFICATION AND DISINFECTION AND METHOD FOR UTILIZING THEREOF” (Sittec Closed Joint Stock Company (Sittec CJSC), priority 2007, dated 2009):

Key:
[1] = hygienic hazard indices in water
Procedure: (§1) Testing the safe method for producing and utilizing the claimed titanium coagulant (absence of mutagenous impact; sensibilizing, allergenic, carcinogenic, gonadotoxic and other action) was carried out on the base of the State organ SRI of human ecology and environmental hygiene named after A.N. Sysin of the Russian Academy of Medical Sciences (RAMS).
(§2) Particularly, derivatives of aluminium oxychloride (AOC) and aluminium sulfate are monitored in accordance with the aluminium content in potable water. While testing the new coagulant, the same principles for evaluating the titanium coagulant safety as the safety evaluation of coagulants based on aluminium were applied. […]
One can see from the Table 22 that the method for producing the titanium coagulant and the coagulant generally are safe by the main hygienic indices, and control of the titanium coagulant content in purified water should be performed in accordance with the titanium and aluminium content therein pursuant to the MAC of 0.1 mg/L and 0.2 mg/L, respectively, established for them.

[2] = acute toxicity (hazard indices); details: in vivo
Procedure: as §1, §2

aluminium oxychloride [AOC, reference compound]
MAC [1]: 1.5 mg/L
Min.possi bl [1]: 1.0 mg/kg
L.conc. ([1]; muddiness): 1.45 (muddiness) mg/L
L.conc. ([1]; retardation): 1.0 (retardation) mg/L

Titanium
Min.possi bl [1]: 1.0 mg/kg
L.conc. ([1]; retardation): 0.1 (retardation) mg/L
L.conc. ([1]; taint): 4.5 (taint) mg/L
LD50 [2]: 150 mg/kg

[Al] [Aluminium]
L.conc. ([1]; muddiness): 0.2 (muddiness) mg/L
LD50 [2]: 180 to 1360 mg/kg
